Data on four molecules can be found in paper PMC11791213, “Elucidating ligand interactions and small-molecule activation in the pyrrolnitrin biosynthetic enzyme PrnB” (The Journal of Biological Chemistry, 2024).

Molecules are shown by their SMILES.

The target in assay [1] is T1, FbPrnB (Flavobacteriales bacterium, UniProt A0AC62AEF3).
T1 construct: N-terminal His-tag
T1 sequence (A0AC62AEF3 1-350): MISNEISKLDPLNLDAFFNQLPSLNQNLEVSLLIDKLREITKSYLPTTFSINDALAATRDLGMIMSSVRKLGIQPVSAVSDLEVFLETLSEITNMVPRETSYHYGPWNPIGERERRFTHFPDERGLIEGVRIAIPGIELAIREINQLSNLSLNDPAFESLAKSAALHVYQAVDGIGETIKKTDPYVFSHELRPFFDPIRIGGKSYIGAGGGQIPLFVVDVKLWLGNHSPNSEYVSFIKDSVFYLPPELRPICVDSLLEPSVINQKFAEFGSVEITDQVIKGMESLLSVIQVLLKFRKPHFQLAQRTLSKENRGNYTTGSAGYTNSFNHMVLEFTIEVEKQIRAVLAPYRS
Description: X-ray crystal structure of the binary complex. It is filed as binding.

Assay [2] addresses T2, PsPrnB.
T2 construct: gene prnB; N-terminal His6-tag (TEV-cleavable)
Description: UV-visible absorption titration of the ferric enzyme; resonance Raman. In kind it is binding, Pseudomonas sp. ADAK18.

Assay [3] deals with T2, PsPrnB. Description: UV-visible absorption titration of the ferric enzyme; EPR; resonance Raman. It is filed as binding, Pseudomonas sp. ADAK18.
The target in assay [4] is T1, FbPrnB. Description: X-ray crystal structure of the binary complex ([…] and […] occupancy). In kind it is binding.
Assay [5] deals with T1, FbPrnB. Description: X-ray crystal structure of the binary complex; UV-visible; resonance Raman. It is filed as binding.

In the case of `N[C@@H](Cc1c[nH]c2c(Cl)cccc12)C(=O)O` [7-Cl-Trp, 7-chloro-L-tryptophan], the “X-ray crystal structure of the binary complex” value on FbPrnB [1] is “binding conformations of 7-Cl-Trp and Trp are nearly identical (Fig. S7A), with the amino group directly coordinating to the iron center”. Further, the Kd on PsPrnB [2] is 1.9 µM.

Take `O=C(O)CCc1c[nH]c2ccccc12` [IDPA, 3-indolepropionic acid]: at FbPrnB [1], the “X-ray crystal structure of the binary complex” value is “The structure of the IDPA-bound complex aligns well with our spectroscopic data, confirming that IDPA does not directly interact with the iron”. The Kd on PsPrnB [3] stood at 9.1 µM.

Turning to `NCCc1c[nH]c2ccccc12` [TAM, tryptamine], the “X-ray crystal structure of the binary complex (75% and 90% occupancy)” value on FbPrnB [4] is “The amine tail is flexible and adopts two distinct conformations in Chain A (Fig. 5D), with one remaining in coordination”. Besides, binding at PsPrnB [3] was characterised by a dissociation constant (Kd) of 411 µM.

`N[C@@H](Cc1c[nH]c2ccccc12)C(=O)O` [Trp, L-tryptophan] showed a Kd at PsPrnB [3] of 4.1 µM. The “X-ray crystal structure of the binary complex; UV-visible; resonance Raman” value on FbPrnB [5] was “binding conformations of 7-Cl-Trp and Trp are nearly identical (Fig. S7A), with the amino group directly coordinating to the iron center”.
